Measured values from ChEMBL document CHEMBL4610024, “The ceramide analogue N-(1-hydroxy-3-morpholino-1-phenylpropan-2-yl)decanamide induces large lipid droplet accumulation and highlights the effect of LAMP-2 deficiency on lipid droplet degradation” (Bioorg Med Chem Lett, 2020).
Active and inactive are the calls of the source. The rule behind the calls is not given here.

Tests used:
[1] = tested on: L929; test: Induction of autophagy in CRISPR/Cas9-mediated LAMP2 knocked out mouse L cells assessed as formation of LC3 puncta rim around large autophagosome at 40 uM measured after 17 hrs by Hoechst 33342 staining based assay; format: functional, cell-based
[2] = tested on: L929; test: Induction of autophagy in CRISPR/Cas9-mediated LAMP2 knocked out mouse L cells assessed as increase in […] puncta at 40 uM measured after 17 hrs by Hoechst 33342 staining based assay; format: functional, cell-based
[3] = tested on: L929; test: Induction of lipid droplet degradation in CRISPR/Cas9-mediated LAMP2 knocked out mouse L cells at 40 uM measured after 17 hrs by LipiDye staining based assay; format: functional, cell-based
[4] = target: T1, Lysosome-associated membrane glycoprotein 2 (Mus musculus) (UniProt P17047); test: Induction of LAMP2-mediated autophagy in mouse L cells assessed as increase in LC3 puncta at 40 uM measured after 17 hrs by Hoechst 33342 staining based assay; format: cell-based; details: L929
T1 sequence (whole entry): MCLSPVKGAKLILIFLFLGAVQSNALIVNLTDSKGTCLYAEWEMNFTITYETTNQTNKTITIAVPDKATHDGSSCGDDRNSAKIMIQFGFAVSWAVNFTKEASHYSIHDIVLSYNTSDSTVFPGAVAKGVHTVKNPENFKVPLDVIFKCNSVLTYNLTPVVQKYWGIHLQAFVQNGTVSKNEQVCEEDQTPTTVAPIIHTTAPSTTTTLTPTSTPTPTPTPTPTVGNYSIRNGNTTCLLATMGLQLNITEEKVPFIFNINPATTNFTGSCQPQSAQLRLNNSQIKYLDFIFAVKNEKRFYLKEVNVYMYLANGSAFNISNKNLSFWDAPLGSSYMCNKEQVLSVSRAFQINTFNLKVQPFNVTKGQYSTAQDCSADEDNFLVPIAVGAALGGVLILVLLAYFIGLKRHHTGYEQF

[5] = target: T1, Lysosome-associated membrane glycoprotein 2 (Mus musculus); test: Induction of LAMP2-mediated lipid droplet degradation in mouse L cells assessed as increase in length of long axis of lipid droplet at 40 uM measured after 17 hrs by transmission electron microscopy analysis; format: cell-based; details: L929
[6] = tested on: L929; test: Induction of large autophagosome formation in CRISPR/Cas9-mediated LAMP2 knocked out mouse L cells assessed as degradation of multilamellar bodies at 40 uM measured after 17 hrs by transmission electron microscopy analysis; format: functional, cell-based
[7] = tested on: L929; test: Induction of large autophagosome formation in CRISPR/Cas9-mediated LAMP2 knocked out mouse L cells assessed as loosened multilamellar bodies at 40 uM measured after 17 hrs by transmission electron microscopy analysis; format: functional, cell-based
[8] = tested on: L929; test: Induction of large autophagosome formation in CRISPR/Cas9-mediated LAMP2 knocked out mouse L cells assessed as decrease in multilamellar bodies layers at 40 uM measured after 17 hrs by transmission electron microscopy analysis; format: functional, cell-based
[9] = tested on: L929; test: Induction of large autophagosome formation in CRISPR/Cas9-mediated LAMP2 knocked out mouse L cells assessed as accumulation of abnormal multilamellar bodies at 40 uM measured after 17 hrs by transmission electron microscopy analysis; format: functional, cell-based
[10] = target: T1, Lysosome-associated membrane glycoprotein 2 (Mus musculus); test: Induction of LAMP2-mediated lipid droplet enlargement in mouse L cells at 40 uM measured after 17 hrs by LipiDye staining based assay; format: cell-based; details: L929
[11] = tested on: L929; test: Induction of autophagy in CRISPR/Cas9-mediated LAMP2 knocked out mouse L cells assessed as formation of LC3 puncta rim in other part of cell at 40 uM measured after 17 hrs by Hoechst 33342 staining based assay; format: functional
[12] = tested on: L929; test: Induction of lipid droplet degradation in CRISPR/Cas9-mediated LAMP2 knocked out mouse L cells assessed as decrease in number of lipid droplet with long axis exceeding 1 um at 40 uM measured after 17 hrs by transmission electron microscopy analysis; format: functional, cell-based

Activity [4]: Active
Activity [5]: Active
Activity [10]: Active
Structure (SMILES): CCCCCCCCCC(=O)NC(CN1CCOCC1)C(O)c1ccccc1 (configuration not stated)
Activity [1]: Active
Activity [2]: Active
Activity [3]: inactive
Activity [6]: Active
Activity [7]: Active
Activity [8]: Active
Activity [9]: Active
Activity [11]: inactive
Activity [12]: inactive
